# Reference: patent US12590096B2, “Imidazo[2,1-f][1,2,4]triazin-4-amine as TLR8 agonists” (BeOne Medicines | GmbH, priority 2019, dated 2026)
# pEC50: −log10 of the molar value. Where two headings read alike, the source gives them in different places.
# Experiments:
# [1] = target: T1, human TLR 8 protein in HEK-blue hTLR 8 tool cell line (Homo sapiens, UniProt Q9NR97); assay: TLR8 stimulation determined by HEK-Blue Detection (NF-κB/SEAP reporter); assay type: cell-based; settings: HEK-Blue hTLR8 cells, 16 h incubation; for pEC50: relative to maximum activation by Resiquimod or motolimod, read-out: EC50 (nmol); for EC50: unit μM, read-out: EC50
# T1 construct: expressed in transfected cells; host or cells: HEK293 (HEK-Blue hTLR8)
# T1 sequence (Q9NR97 27-1041): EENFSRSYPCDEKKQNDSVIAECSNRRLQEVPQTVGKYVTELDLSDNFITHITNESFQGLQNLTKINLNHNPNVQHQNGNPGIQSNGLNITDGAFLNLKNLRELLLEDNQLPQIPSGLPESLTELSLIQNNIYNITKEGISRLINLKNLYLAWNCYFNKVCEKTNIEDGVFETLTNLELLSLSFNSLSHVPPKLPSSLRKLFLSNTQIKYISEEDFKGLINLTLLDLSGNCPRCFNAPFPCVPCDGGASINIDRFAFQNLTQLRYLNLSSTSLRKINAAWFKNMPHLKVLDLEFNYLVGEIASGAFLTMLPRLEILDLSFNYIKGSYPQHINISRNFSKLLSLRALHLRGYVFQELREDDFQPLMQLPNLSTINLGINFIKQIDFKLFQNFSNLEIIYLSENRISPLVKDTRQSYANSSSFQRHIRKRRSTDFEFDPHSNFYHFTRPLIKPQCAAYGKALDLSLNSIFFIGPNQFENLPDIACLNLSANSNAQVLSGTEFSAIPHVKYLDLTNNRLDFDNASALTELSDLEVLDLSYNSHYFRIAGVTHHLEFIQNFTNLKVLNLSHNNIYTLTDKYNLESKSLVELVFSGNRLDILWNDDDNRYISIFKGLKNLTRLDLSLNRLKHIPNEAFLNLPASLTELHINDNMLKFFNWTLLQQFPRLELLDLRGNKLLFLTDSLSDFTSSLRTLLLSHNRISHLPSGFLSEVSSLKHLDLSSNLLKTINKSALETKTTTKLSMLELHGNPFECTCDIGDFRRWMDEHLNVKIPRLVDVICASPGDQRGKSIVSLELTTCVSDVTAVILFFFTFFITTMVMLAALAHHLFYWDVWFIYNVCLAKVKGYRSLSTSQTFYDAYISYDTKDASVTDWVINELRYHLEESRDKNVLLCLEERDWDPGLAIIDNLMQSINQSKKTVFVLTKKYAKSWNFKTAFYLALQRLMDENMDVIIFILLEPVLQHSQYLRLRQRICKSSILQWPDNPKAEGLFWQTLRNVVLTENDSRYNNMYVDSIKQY
# From the text: TLR8 Stimulation Determined by HEK-Blue Detection
# This assay was designed to study the stimulation of human TLR 8 protein in HEK-blue hTLR 8 tool cell line by monitoring the activation of NF-κB. HEK-blue hTLR8 cells were obtained by co-transfection of hTLR8 gene and optimized secretory embryonic alkaline phosphatase (SEAP) reporter gene into HEK293 cells. SEAP reporter gene was put under the control of […] minimal promoter fused with five NF-κB and AP-1-binding sites. NF-κB and AP-1 were activated by stimulation with TLR 8 ligand, thus inducing the expression of SEAP. The level of SEAP can be easily determined by HEK-Blue Detection (a cell culture medium that allows real-time detection of SEAP). HEK-Blue Detection comprises all nutrients needed for cell growth and specific SEAP color substrates. The hydrolysis of substrate by SEAP produces purple/blue color which can be measured by spectrophotometer.
# When growing to 50-80% confluence, HEK-Blue hTLR7/8 cells were plated into 96-well plates (costar 3599) at a density of 40,000 cells/well. Then, the compound serially diluted at 10 points with a final concentration ranging from 1 nM to 10 μm in 0.1% DMSO/HEK-Blue Detection was added. The plates were then incubated in 5% CO2 at 37° C. for 16 h. Optical density at 620-655 nm was read on BMG PHERAstar FSX instrument. The EC50 of each compound was determined by calculating the maximum activation percentage identified using Resiquimod or motolimod.
# The EC50 of the tested compound of the present invention is as follows.
# [2] = system: PBMC (peripheral blood monocyte); assay: PBMC determination: cytokines in culture supernatant measured by HTRF; assay type: cell-based; settings: human PBMC, 24 h
# Experimental: Determination of PBMC (Peripheral Blood Monocyte) Cell Preparation, Separation and Culture
# Human whole blood was collected from healthy volunteers using BD Vacutainer® Lithium Heparin Tubes. PBMCs were prepared using Ficoll separation medium (GE Healthcare) by SopMate™ (STEMCELL). The cell survival rate was over 85% as monitored by Countstar. PBMCs were cultured in RPMI 1640 (Gibco) 10% (v/v) FBS (Gibco), 1×MEM NEAA (Gibco), 1× GlutaMAX (Gibco), 1 mM sodium pyruvate (Gibco), 50 uM 2-mercaptoethanol (sigma), and 100 U/ml penicillin-streptomycin (Thermo fisher Scientific).
# PBMCs were plated into 96-well plates (costar 3894) with a density of 2×10^5 cells/well. Then, TLR7/8 compound was added, and serial dilution was carried out at ten points. The final concentration in 0.1% DMSO/RPMI 1640 ranged from 1 nM to 10 μM. Then, the plates were incubated in 5% CO2 at 37° C. for 24 h.
# HTRF (Homogeneous Time-Resolved Fluorescence)
# After the specified time point, according to the manufacturers recommendations, the cytokines in the cell culture supernatant were measured by Human IL6 kit (cisbio) and Human TNF alpha kit (cisbio). The EC50 of each compound was determined by calculating the maximum activation percentage identified using Resiquimod or Motolimod.
# [3] = Human IL6 kit (HTRF), read-out: IL6 (EC50)
# [4] = Human TNF alpha kit (HTRF), read-out: TNF-alpha (EC50)
SMILES,pEC50 [1],other results
"CCC[C@H](C)Oc1nc(N)c2ncc(CC3CCNCC3)n2n1 [Compound B6, (S)-2-(pent-2-yloxy)-7-(piperidin-4-ylmethyl)imidazo[2,1-f][1,2,4]triazin-4-amine]",8.09,"pEC50 [2, 3]: 6.79; pEC50 [2, 4]: 6.94"
"CCC[C@@H](C)Oc1nc(N)c2ncc(CC3CCNCC3)n2n1 [Compound B7, (R)-2-(pent-2-yloxy)-7-(piperidin-4-ylmethyl)imidazo[2,1-f][1,2,4]triazin-4-amine]",5.89,"pEC50 [2, 3]: < 5.00; pEC50 [2, 4]: < 5.00"
"CCC[C@H](C)Oc1nc(N)c2ncc(CC3CCN(CCNC)CC3)n2n1 [Compound B12, (S)-7-((1-(2-(methylamino)ethyl)piperidin-4-yl)methyl)-2-(pent-2-yloxy)imidazo[2,1-f][1,2,4]triazin-4-amine]",7.72,"pEC50 [2, 3]: 7.85; pEC50 [2, 4]: 8.00"
"CCCC(C)Oc1nc(N)c2ncc(CC3CCOCC3)n2n1 (stereo not shown) [Compound B36, 2-(pent-2-yloxy)-7-((tetrahydro-2H-pyran-4-yl)methyl)imidazo[2,1-f][1,2,4]triazin-4-amine]",< 5.00,–
"CCC[C@H](C)Oc1nc(N)c2ncc(NC3CCNCC3)n2n1 [Compound B37, (S)-2-(pent-2-yloxy)-N7-(piperidin-4-yl)imidazo[2,1-f][1,2,4]triazin-4,7-diamine]",< 5.00,–
"CCC[C@H](C)Oc1nc(N)c2ncc(CC3CNC3)n2n1 [Compound B39, (S)-7-(azetidin-3-ylmethyl)-2-(pent-2-yloxy)imidazo[2,1-f][1,2,4]triazin-4-amine]",6.90,–
"CCC[C@H](C)Oc1nc(N)c2ncc(CC34CC(N)(C3)C4)n2n1 [Compound B40, (S)-7-((3-aminobicyclo[1.1.1]pent-1-yl)methyl)-2-(pent-2-yloxy)imidazo[2,1-f][1,2,4]triazin-4-amine]",6.00,–
"Cc1cc(COc2nc(N)c3ncc(CC4CCNCC4)n3n2)no1 [Compound B41, 2-((5-methylisoxazol-3-yl)methoxy)-7-(piperidin-4-ylmethyl)imidazo[2,1-f][1,2,4]triazin-4-amine]",< 5.00,–
"CCC[C@H](C)Oc1nc(N)c2ncc(CC3CCCN3)n2n1 (stereo partly drawn) [Compound B42, 2-(((S)-pent-2-yl)oxy)-7-(pyrrolidin-2-ylmethyl)imidazo[2,1-f][1,2,4]triazin-4-amine]",7.44,–
"CCC[C@H](C)Oc1nc(N)c2ncc(CC3CCC4(CC3)CNC4)n2n1 [Compound B43, (S)-7-((2-azaspiro[3.5]non-7-yl)methyl)-2-(pent-2-yloxy)imidazo[2,1-f][1,2,4]triazin-4-amine]",7.62,–
"Cc1cnc(COc2nc(N)c3ncc(CC4CCNCC4)n3n2)s1 [Compound B44, 2-((5-methylthiazol-2-yl)methoxy)-7-(piperidin-4-ylmethyl)imidazo[2,1-f][1,2,4]triazin-4-amine]",< 5.00,–
"CCCC(Cc1ccccc1)Oc1nc(N)c2ncc(CC3CCNCC3)n2n1 (stereo not shown) [Compound B45, 2-((1-phenylpent-2-yl)oxy)-7-(piperidin-4-ylmethyl)imidazo[2,1-f][1,2,4]triazin-4-amine]",6.27,–
"Nc1nc(OCC2CCOC2)nn2c(CC3CCNCC3)cnc12 (stereo not shown) [Compound B46, 7-(piperidin-4-ylmethyl)-2-((tetrahydrofuran-3-yl)methoxy)imidazo[2,1-f][1,2,4]triazin-4-amine]",< 5.00,–
"CCC[C@H](C)Oc1nc(N)c2ncc(/C=C3/CCNCC3(C)C)n2n1 [Compound B52, (S)-7-((3,3-dimethylpiperidin-4-ylidene)methyl)-2-(pent-2-yloxy)imidazo[2,1-f][1,2,4]triazin-4-amine]",–,EC50 [1]: > 10 µM
"CCC[C@H](C)Oc1nc(N)c2ncc(C=C3CC4CCC(C3)N4)n2n1 [Compound B55, 7-((8-azabicyclo[3.2.1]oct-3-ylene)methyl)-2-(((S)-pent-2-yl)oxy)imidazo[2,1-f][1,2,4]triazin-4-amine]",–,EC50 [1]: > 10 µM
"CCC[C@H](C)Oc1nc(N)c2ncc(CC3CCNCC3(F)F)n2n1 (stereo partly drawn) [Compound B57, 7-((3,3-difluorpiperidin-4-yl)methyl)-2-(((S)-pent-2-yl)oxy)imidazo[2,1-f][1,2,4]triazin-4-amine]",–,EC50 [1]: > 10 µM

# More lines, main results first:
pEC50 [1],SMILES,other results
7.08,"CCCC(CCC)Oc1nc(N)c2ncc(CC3CCNCC3)n2n1 [Compound B47, 2-(hept-4-yloxy)-7-(piperidin-4-ylmethyl)imidazo[2,1-f][1,2,4]triazin-4-amine]",–
7.83,"CCC(CC)Oc1nc(N)c2ncc(CC3CCNCC3)n2n1 [Compound B48, 2-(pent-3-yloxy)-7-(piperidin-4-ylmethyl)imidazo[2,1-f][1,2,4]triazin-4-amine]",–
8.12,"CCC[C@H](CC)Oc1nc(N)c2ncc(CC3CCNCC3)n2n1 [Compound B49, (S)-2-(hex-3-yloxy)-7-(piperidin-4-ylmethyl)imidazo[2,1-f][1,2,4]triazin-4-amine]",–
6.68,"CCC[C@H](C)Oc1nc(N)c2ncc(CC3CC4(CCNCC4)C3)n2n1 [Compound B50, (S)-7-((7-azaspiro[3.5]non-2-yl)methyl)-2-(pent-2-yloxy)imidazo[2,1-f][1,2,4]triazin-4-amine]",–
6.39,"CCC[C@H](C)Oc1nc(N)c2ncc(CC3CCCCN3)n2n1 (stereo partly drawn) [Compound B51, 2-(((S)-pent-2-yl)oxy)-7-(piperidin-2-ylmethyl)imidazo[2,1-f][1,2,4]triazin-4-amine]",–
5.41,"CCC[C@H](C)Oc1nc(N)c2ncc(CC3CCNCC3(C)C)n2n1 (stereo partly drawn) [Compound B53, 7-((3,3-dimethylpiperidin-4-yl)methyl)-2-(((S)-pent-2-yl)oxy)imidazol[2,1-f][1,2,4]triazin-4-amine]",–
7.66,"CCC[C@H](C)Oc1nc(N)c2ncc(CC3CCN(CC(C)NC)CC3)n2n1 (stereo partly drawn) [Compound B54, 7-((1-(2-(methylamino)propyl)piperidin-4-yl)methyl)-2-(((S)-pent-2-yl)oxy)imidazo[2,1-f][1,2,4]triazin-4-amine]",–
5.72,"CCC[C@H](C)Oc1nc(N)c2ncc(CC3CC4CCC(C3)N4)n2n1 (stereo partly drawn) [Compound B56, 7-((8-azabicyclo[3.2.1]oct-3-yl)methyl)-2-(((S)-pent-2-yl)oxy)imidazo[2,1-f][1,2,4]triazin-4-amine]",–
6.04,"CCC[C@H](C)Oc1nc(N)c2ncc(CC3CCNCC3C)n2n1 (stereo partly drawn) [Compound B60, 7-((3-methylpiperidin-4-yl)methyl)-2-(((S)-pent-2-yl)oxy)imidazo[2,1-f][1,2,4]triazin-4-amine]",–
